Patent US6482654B1, “Method of detecting shikimic acid” (Syngenta Limited, priority 2000, dated 2002)

System: plants
Assay: Shikimic acid/shikimate accumulation in glyphosate-treated plants, periodate/sulfite chromophore assay
Type: in vivo
Conditions: plants treated with a lethal amount of glyphosate; 5-10 μL of extract of about 150 mg leaf tissue in 8-fold (w/v) 0.25N hydrochloric acid; 1 ml final solution; control about 0.1 AU
Procedure: In the performance of the methods of the invention, for detection of the chromophore, it is preferable to have an absorbance of at least 0.05 absorbance units (AU) for the untreated control plant test sample and an absorbance of less than 2.0 AU for the test sample with the greatest amount of shikimic acid/shikimate in order to obtain optimal results from spectrophotometric measurement of the chromophore. […] After reaction with the periodate reagent and quenching by 0.5 ml of a mixture comprising sulfite and sodium hydroxide, there was 1 ml of solution with an absorbance of about 1.8 AU, while an untreated control plant gave an absorbance of about 0.1 AU.

O=C(O)CNCP(=O)(O)O [glyphosate, N-(phosphonomethyl) glycine]
absorbance of the chromophore (shikimic acid/shikimate accumulated): about 1.8 AU
